Source: patent US20230263757A1, “DISINFECTING WIPE KIT FOR CENTRAL VENOUS ACCESS DEVICES” (SterileCare Inc., priority 2022, published 2023)
Structures can show the parent of a compound that is named as a salt. Where two headings read alike, the source gives them in different places.

Experiments:
MRSA ON184 [1] = assay: MBC/MFC determination; format: cell-based, S. aureus; conditions: alone
Protocol: (§1) An assay was made using a minimum inhibitory concentration (MIC) and minimum bactericidal concentration (MBC) and minimum fungicidal concentration (MFC) determination. The MIC was determined by the micro broth dilution method in 96-well plates. Serial two-fold dilutions of tetrasodium EDTA (from 2% to 0.015%), ethanol (from 50% to 0.1%) and chlorhexidine HCl (from 100 μg/mL to 0.025 μg/mL) were prepared in MH broth with a final volume of 90 μL per well. A 10 μL containing 1×10^5 bacterial cells or 2×10^3 fungal cells were added to each well. The inoculated plates were covered with a lid, sealed with Parafilm, and incubated for 24 h at 37° C. with slight rocking on a tilting platform shaker. After incubation, the optical density at 600 nm (OD 600) of the cultures in each well was measured using an xMark™ Microplate Absorbance Spectrophotometer (Bio-Rad). […] MBCs and MFCs were determined by transferring 100 μL from each well with no apparent growth onto appropriate agar plates, followed by incubation for 24 h at 37° C.

[2] = tested on: Staphylococcus epidermidis SK9; assay: FBEC index, checkerboard on biofilms; format: cell-based
Protocol: (§3) In step (4), microtiter plates are incubated at 37° C. for 24 h. then (6), after incubation, the bacterial and fungal cells were dislodged from the pegs into the recovery medium described above.
(§4) Three 10-μL aliquots, for a total of 30 μL from each well of recovery medium, were spotted on MH agar plates and incubated for 24 h at 37° C. […] The FBEC determination is a modification of the FICI.

MRSA ON184 [3] = assay: MIC, micro broth dilution; format: cell-based, S. aureus; conditions: alone
Protocol: as §1

Proteus mirabilis ON153 [4] = assay: FBEC index, checkerboard on biofilms; format: cell-based
Protocol: as §3, §4

S. epidermidis SK9 [5] = assay: MBC/MFC determination; format: cell-based, Staphylococcus epidermidis; conditions: alone
Protocol: as §1

[6] = tested on: Pseudomonas aeruginosa SK1; assay: FBEC index, checkerboard on biofilms; format: cell-based
Protocol: as §3, §4

S. epidermidis SK9 [7] = assay: MIC, micro broth dilution; format: cell-based, Staphylococcus epidermidis; conditions: alone
Protocol: as §1

Candida albicans SK4b [8] = assay: FBEC index, checkerboard on biofilms; format: cell-based
Protocol: as §3, §4

Candida albicans SK4b [9] = assay: Checkerboard, FMCI; format: cell-based
Protocol: as §1
(§2) A fourth composition and solution included tetrasodium EDTA with ethanol or chlorhexidine HCl. This fourth composition and solution were created using checkerboard titration methods using micro broth dilution in 96-well microtiter plates. The concentrations of antimicrobials used were based on previously determined MIC values. Briefly, 200 μL, of two-fold dilutions of tetrasodium EDTA and ethanol or chlorhexidine HCl were prepared in MH or MH II broth with standardized cell suspension. […] Microtiter plates were incubated at 37° C. for 24 h, and the results were analyzed. Each test was performed in duplicate and included a growth control without adding any antimicrobials.

Serratia marcescens SK2 [10] = assay: Checkerboard, FMCI; format: cell-based
Protocol: as §1, §2

Escherichia coli ON29 [11] = assay: Checkerboard, FMCI; format: cell-based
Protocol: as §1, §2

[12] = tested on: Staphylococcus aureus ON89; assay: Checkerboard, FMCI; format: cell-based
Protocol: as §1, §2

[13] = tested on: Staphylococcus epidermidis ON170; assay: Checkerboard, FMCI; format: cell-based
Protocol: as §1, §2

Proteus mirabilis ON153 [14] = assay: Checkerboard, FMCI; format: cell-based
Protocol: as §1, §2

[15] = tested on: Pseudomonas aeruginosa SK1; assay: Checkerboard, FMCI; format: cell-based
Protocol: as §1, §2

[16] = tested on: Stenotrophomonas maltophilia ON17; assay: Checkerboard, FMCI; format: cell-based
Protocol: as §1, §2

C. albicans ON47 [17] = assay: Checkerboard titration, FICI; format: cell-based, Candida albicans
Protocol: as §2

C. albicans ON47 [18] = assay: MBC/MFC determination; format: cell-based, Candida albicans; conditions: alone
Protocol: as §1

Candida albicans SK4b [19] = assay: Checkerboard titration, FICI; format: cell-based
Protocol: as §2

Serratia marcescens SK2 [20] = assay: Checkerboard titration, FICI; format: cell-based
Protocol: as §2

Escherichia coli ON29 [21] = assay: Checkerboard titration, FICI; format: cell-based
Protocol: as §2

[22] = tested on: Staphylococcus aureus ON89; assay: Checkerboard titration, FICI; format: cell-based
Protocol: as §2

[23] = tested on: Staphylococcus epidermidis ON170; assay: Checkerboard titration, FICI; format: cell-based
Protocol: as §2

Proteus mirabilis ON153 [24] = assay: Checkerboard titration, FICI; format: cell-based
Protocol: as §2

[25] = tested on: Pseudomonas aeruginosa SK1; assay: Checkerboard titration, FICI; format: cell-based
Protocol: as §2

[26] = tested on: Stenotrophomonas maltophilia ON17; assay: Checkerboard titration, FICI; format: cell-based
Protocol: as §2

Candida albicans SK4b [27] = assay: MIC, micro broth dilution; format: cell-based; conditions: alone
Protocol: as §1

Serratia marcescens SK2 [28] = assay: MIC, micro broth dilution; format: cell-based; conditions: alone
Protocol: as §1

Escherichia coli ON29 [29] = assay: MIC, micro broth dilution; format: cell-based; conditions: alone
Protocol: as §1

[30] = tested on: Staphylococcus aureus ON89; assay: MIC, micro broth dilution; format: cell-based; conditions: alone
Protocol: as §1

[31] = tested on: Staphylococcus epidermidis ON170; assay: MIC, micro broth dilution; format: cell-based; conditions: alone
Protocol: as §1

Proteus mirabilis ON153 [32] = assay: MIC, micro broth dilution; format: cell-based; conditions: alone
Protocol: as §1

[33] = tested on: Pseudomonas aeruginosa SK1; assay: MIC, micro broth dilution; format: cell-based; conditions: alone
Protocol: as §1

[34] = tested on: Stenotrophomonas maltophilia ON17; assay: MIC, micro broth dilution; format: cell-based; conditions: alone
Protocol: as §1

[H]/N=C(\N/C(=N/[H])NCCCCCCNC(=N)NC(=N)Nc1ccc(Cl)cc1)Nc1ccc(Cl)cc1 [Chlorhexidine HCl, 1,6-bis(4′-chlorophenylbiguanide) hexane]
MBC/MFC (MRSA ON184 [1]): 1.6 µg/mL
Chlorhexidine HCl biofilm eradication concentration in combination (FBEC) ([2]; EDTA + chlorhexidine HCl): 3.125 µg/mL
MIC (MRSA ON184 [3]; Staphylococcus aureus, read-out: MIC): 0.2 µg/mL
Chlorhexidine HCl biofilm eradication concentration in combination (FBEC) (Proteus mirabilis ON153 [4]; EDTA + chlorhexidine HCl): 3.125 µg/mL
MBC/MFC (S. epidermidis SK9 [5]): 0.8 µg/mL
Chlorhexidine HCl biofilm eradication concentration in combination (FBEC) ([6]; EDTA + chlorhexidine HCl): 3.125 µg/mL
MIC (S. epidermidis SK9 [7]; Staphylococcus epidermidis, read-out: MIC): 0.1 µg/mL
Chlorhexidine HCl biofilm eradication concentration in combination (FBEC) (Candida albicans SK4b [8]; EDTA + chlorhexidine HCl): 6.25 µg/mL
Chlorhexidine HCl microbicidal concentration in combination (Candida albicans SK4b [9]; EDTA + chlorhexidine HCl): 0.8 µg/mL
Chlorhexidine HCl microbicidal concentration in combination (Serratia marcescens SK2 [10]; EDTA + chlorhexidine HCl): 1.6 µg/mL
Chlorhexidine HCl microbicidal concentration in combination (Escherichia coli ON29 [11]; EDTA + chlorhexidine HCl): 0.2 µg/mL
Chlorhexidine HCl microbicidal concentration in combination ([12]; EDTA + chlorhexidine HCl): 0.2 µg/mL
Chlorhexidine HCl microbicidal concentration in combination ([13]; EDTA + chlorhexidine HCl): 0.4 µg/mL
Chlorhexidine HCl microbicidal concentration in combination (Proteus mirabilis ON153 [14]; EDTA + chlorhexidine HCl): 1.6 µg/mL
Chlorhexidine HCl microbicidal concentration in combination ([15]; EDTA + chlorhexidine HCl): 1.6 µg/mL
Chlorhexidine HCl microbicidal concentration in combination ([16]; EDTA + chlorhexidine HCl): 0.4 µg/mL
Chlorhexidine HCl concentration in combination (C. albicans ON47 [17]; EDTA + chlorhexidine HCl): 0.8 µg/mL
MBC/MFC (C. albicans ON47 [18]): 3.125 µg/mL
Chlorhexidine HCl concentration in combination (Candida albicans SK4b [19]; EDTA + chlorhexidine HCl): 0.8 µg/mL
Chlorhexidine HCl concentration in combination (Serratia marcescens SK2 [20]; EDTA + chlorhexidine HCl): 1.5 µg/mL
Chlorhexidine HCl concentration in combination (Escherichia coli ON29 [21]; EDTA + chlorhexidine HCl): 0.2 µg/mL
Chlorhexidine HCl concentration in combination ([22]; EDTA + chlorhexidine HCl): 0.1 µg/mL
Chlorhexidine HCl concentration in combination ([23]; EDTA + chlorhexidine HCl): 0.05 µg/mL
Chlorhexidine HCl concentration in combination (Proteus mirabilis ON153 [24]; EDTA + chlorhexidine HCl): 0.8 µg/mL
Chlorhexidine HCl concentration in combination ([25]; EDTA + chlorhexidine HCl): 0.8 µg/mL
Chlorhexidine HCl concentration in combination ([26]; EDTA + chlorhexidine HCl): 0.2 µg/mL
MIC (Candida albicans SK4b [27]; read-out: MIC): 1.6 µg/mL
MIC (Serratia marcescens SK2 [28]; read-out: MIC): 12.5 µg/mL
MIC (Escherichia coli ON29 [29]; read-out: MIC): 0.4 µg/mL
MIC ([30]; read-out: MIC): 0.1 µg/mL
MIC ([31]; read-out: MIC): 0.1 µg/mL
MIC (Proteus mirabilis ON153 [32]; read-out: MIC): 50 µg/mL
MIC ([33]; read-out: MIC): 1.6 µg/mL
MIC ([34]; read-out: MIC): 0.8 µg/mL

O=C([O-])CN(CCN(CC(=O)[O-])CC(=O)[O-])CC(=O)[O-].[Na+].[Na+].[Na+].[Na+] [EDTA, tetrasodium EDTA]
MBC/MFC (MRSA ON184 [1]): 2 % w/v
EDTA biofilm eradication concentration in combination (FBEC) ([2]; EDTA + chlorhexidine HCl): 0.125 % w/v
biofilm eradication concentration in combination (FBEC) ([2]; EDTA + ethanol): 0.031 % w/v
MIC (MRSA ON184 [3]): 0.063 % w/v
EDTA biofilm eradication concentration in combination (FBEC) (Proteus mirabilis ON153 [4]; EDTA + chlorhexidine HCl): 0.125 % w/v
biofilm eradication concentration in combination (FBEC) (Proteus mirabilis ON153 [4]; EDTA + ethanol): 0.125 % w/v
MBC/MFC (S. epidermidis SK9 [5]): 0.5 % w/v
EDTA biofilm eradication concentration in combination (FBEC) ([6]; EDTA + chlorhexidine HCl): 0.25 % w/v
biofilm eradication concentration in combination (FBEC) ([6]; EDTA + ethanol): 0.125 % w/v
MIC (S. epidermidis SK9 [7]): 0.063 % w/v
EDTA biofilm eradication concentration in combination (FBEC) (Candida albicans SK4b [8]; EDTA + chlorhexidine HCl): 0.063 % w/v
biofilm eradication concentration in combination (FBEC) (Candida albicans SK4b [8]; EDTA + ethanol): 0.125 % w/v
EDTA microbicidal concentration in combination (Candida albicans SK4b [9]; EDTA + chlorhexidine HCl): 0.125 % w/v
microbicidal concentration in combination (Candida albicans SK4b [9]; EDTA + ethanol): 0.25 % w/v
EDTA microbicidal concentration in combination (Serratia marcescens SK2 [10]; EDTA + chlorhexidine HCl): 0.125 % w/v
microbicidal concentration in combination (Serratia marcescens SK2 [10]; EDTA + ethanol): 0.25 % w/v
EDTA microbicidal concentration in combination (Escherichia coli ON29 [11]; EDTA + chlorhexidine HCl): 0.008 % w/v
microbicidal concentration in combination (Escherichia coli ON29 [11]; EDTA + ethanol): 0.25 % w/v
EDTA microbicidal concentration in combination ([12]; EDTA + chlorhexidine HCl): 0.008 % w/v
microbicidal concentration in combination ([12]; EDTA + ethanol): 0.25 % w/v
EDTA microbicidal concentration in combination ([13]; EDTA + chlorhexidine HCl): 0.25 % w/v
microbicidal concentration in combination ([13]; EDTA + ethanol): 0.031 % w/v
EDTA microbicidal concentration in combination (Proteus mirabilis ON153 [14]; EDTA + chlorhexidine HCl): 0.125 % w/v
microbicidal concentration in combination (Proteus mirabilis ON153 [14]; EDTA + ethanol): 0.063 % w/v
EDTA microbicidal concentration in combination ([15]; EDTA + chlorhexidine HCl): 0.031 % w/v
microbicidal concentration in combination ([15]; EDTA + ethanol): 0.031 % w/v
EDTA microbicidal concentration in combination ([16]; EDTA + chlorhexidine HCl): 0.031 % w/v
microbicidal concentration in combination ([16]; EDTA + ethanol): 0.125 % w/v
EDTA concentration in combination (C. albicans ON47 [17]; EDTA + chlorhexidine HCl): 0.125 % w/v
concentration in combination (C. albicans ON47 [17]; EDTA + ethanol): 0.25 % w/v
MBC/MFC (C. albicans ON47 [18]): 1 % w/v
EDTA concentration in combination (Candida albicans SK4b [19]; EDTA + chlorhexidine HCl): 0.063 % w/v
concentration in combination (Candida albicans SK4b [19]; EDTA + ethanol): 0.25 % w/v
EDTA concentration in combination (Serratia marcescens SK2 [20]; EDTA + chlorhexidine HCl): 0.063 % w/v
concentration in combination (Serratia marcescens SK2 [20]; EDTA + ethanol): 0.5 % w/v
EDTA concentration in combination (Escherichia coli ON29 [21]; EDTA + chlorhexidine HCl): 0.008 % w/v
concentration in combination (Escherichia coli ON29 [21]; EDTA + ethanol): 0.25 % w/v
EDTA concentration in combination ([22]; EDTA + chlorhexidine HCl): 0.008 % w/v
concentration in combination ([22]; EDTA + ethanol): 0.015 % w/v
EDTA concentration in combination ([23]; EDTA + chlorhexidine HCl): 0.063 % w/v
concentration in combination ([23]; EDTA + ethanol): 0.015 % w/v
EDTA concentration in combination (Proteus mirabilis ON153 [24]; EDTA + chlorhexidine HCl): 0.063 % w/v
concentration in combination (Proteus mirabilis ON153 [24]; EDTA + ethanol): 0.5 % w/v
EDTA concentration in combination ([25]; EDTA + chlorhexidine HCl): 0.5 % w/v
concentration in combination ([25]; EDTA + ethanol): 0.031 % w/v
EDTA concentration in combination ([26]; EDTA + chlorhexidine HCl): 0.015 % w/v
concentration in combination ([26]; EDTA + ethanol): 0.031 % w/v
MIC (Candida albicans SK4b [27]): 1 % w/v
MIC (Serratia marcescens SK2 [28]): 2 % w/v
MIC (Escherichia coli ON29 [29]): 0.5 % w/v
MIC [30]: 0.063 % w/v
MIC [31]: 0.063 % w/v
MIC (Proteus mirabilis ON153 [32]): 1 % w/v
MIC [33]: 0.25 % w/v
MIC [34]: 0.063 % w/v
